The values that follow come from publication PMC11758394, “VCP downstream metabolite glycerol-3-phosphate (G3P) inhibits CD8^+T cells function in the HCC microenvironment” (Signal Transduction and Targeted Therapy, 2025).

The target in assay [1] is T1, region LCK(240-509AAs) (Homo sapiens, UniProt P06239).
T1 construct: purified fragment 240-509 (kinase domain)
Put plainly: SPR (Biacore 8K, protein on CM5 chip); also ITC. The settings on record: PBS; value not in text; binding of this fragment inferred because it contains 330-509.

For assay [2], the target named is T2, LCK (Homo sapiens, UniProt P06239).
T2 construct: purified full-length LCK
As to the kind of experiment: SPR (Biacore 8K, protein on CM5 chip); also ITC. It is filed as binding. The settings on record: PBS; value not in text. In general terms: SPR reads the build-up and loss of mass on a sensor chip optically.

Molecules are shown by their SMILES.

T2 sequence (P06239 whole entry): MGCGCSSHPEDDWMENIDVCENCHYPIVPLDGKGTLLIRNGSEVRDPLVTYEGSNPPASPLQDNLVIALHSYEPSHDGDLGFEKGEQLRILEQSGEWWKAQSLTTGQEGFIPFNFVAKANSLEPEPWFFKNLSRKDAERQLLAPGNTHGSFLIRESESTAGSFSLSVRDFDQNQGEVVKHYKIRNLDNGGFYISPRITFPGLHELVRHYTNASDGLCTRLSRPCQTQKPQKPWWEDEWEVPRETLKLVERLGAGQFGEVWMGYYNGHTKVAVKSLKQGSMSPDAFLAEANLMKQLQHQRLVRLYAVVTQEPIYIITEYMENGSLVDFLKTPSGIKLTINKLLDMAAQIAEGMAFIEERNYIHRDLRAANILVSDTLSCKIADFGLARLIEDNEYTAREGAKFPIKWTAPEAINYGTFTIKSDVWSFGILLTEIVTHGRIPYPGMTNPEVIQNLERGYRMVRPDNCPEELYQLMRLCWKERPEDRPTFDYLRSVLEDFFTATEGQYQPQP
T1 sequence (P06239 240-509): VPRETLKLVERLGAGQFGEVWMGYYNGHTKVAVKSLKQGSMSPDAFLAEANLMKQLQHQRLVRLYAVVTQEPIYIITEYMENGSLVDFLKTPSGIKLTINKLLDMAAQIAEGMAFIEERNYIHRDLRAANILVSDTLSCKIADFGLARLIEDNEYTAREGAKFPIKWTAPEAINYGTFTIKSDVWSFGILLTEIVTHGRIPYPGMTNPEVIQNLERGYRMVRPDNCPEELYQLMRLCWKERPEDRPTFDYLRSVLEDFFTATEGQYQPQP

On to `O=P(O)(O)OC[C@H](O)CO` [G3P], for which the Kd entry in assay [1] is “BIAcore measurement of the interaction between G3P and the purified region”; in assay [2], “we demonstrated the interaction of LCK and G3P using surface plasmon resonance (BIAcore) experiment”.
